# Test results taken from ChEMBL document CHEMBL1201862, “PubChem BioAssay data set” (2004).
# Activity calls are given as the source filed them.
# Assays:
# [1] = Luminescence Cell-Based Dose Confirmation HTS to Identify Activators of 5'UTR Stem-Loop Driven Alpha-Synuclein mRNA Translation in H4 Neuroglioblastoma Cells. [Related pubchem assays: 1829 (Project Summary), 1814 (Primary HTS)]; assay type: functional
# [2] = Luminescence Cell-Based Dose Response HTS to Identify Activators of Luciferase Translation or Activity in H4 […] Cells. [Related pubchem assays: 1829 (Project Summary), 1814 (Primary HTS)]; assay type: functional
# BJ [3] = assay: cytotoxicity toward BJ-TERT fibroblasts, dose response, cell-based, RAS-independent, luminescence (AID 1933); assay type: functional, Homo sapiens; conditions: Homo sapiens, BJ
# H4 = assay: Luminescence Cell-Based Dose Response HTS to Identify Activators of 5'UTR Stem-Loop Driven Prion Protein mRNA Translation in H4 Neuroglioblastoma Cells. [Related pubchem assays: 1829 (Project Summary), 1814 (Primary HTS)]; assay type: functional; conditions: Homo sapiens
# BJ [4] = assay: cells; assay type: functional, cell-based, Homo sapiens; conditions: Homo sapiens, BJ
# Large T antigen = Large T antigen (Simian virus 40, UniProt P03070); assay type: functional, Betapolyomavirus macacae;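 further: Confirmatory-stage PubChem screen for compounds that inhibit SV40 T antigen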
# BJ [5] = assay: cytotoxicity toward BJ-TERT-LT-ST fibroblasts, dose response, cell-based, RAS-independent, luminescence (AID 1935); assay type: functional, Homo sapiens; conditions: Homo sapiens, BJ;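 further: BJ fibroblasts immortalized with TERT plus LT and ST oncogenes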
# [6] = cytotoxicity toward DRD oncogenic fibroblasts, dose response, cell-based, non-viral oncogenic, luminescence (AID 1934); assay type: functional; conditions: Homo sapiens
# [7] = target: Neurotensin receptor type 1 (Homo sapiens, UniProt P30989); assay type: functional;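 further: Image-based confirmatory dose-response assay measuring agonist activity at NTR1; NTR1-expressing U2OS osteosarcoma cells imaged for beta-arrestin GFP spot formation; agonist potency where compounds increase beta-arrestin recruitment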
# [8] = THP-1 cell cytotoxicity, dose response, cytotoxicity control for Vif-APOBEC3G degradation inhibitor project, THP-1 cells (AID 1117359); assay type: functional; conditions: Human immunodeficiency virus 1, THP-1
# [9] = target: T1, RNA-binding protein pos-1 (Caenorhabditis elegans, UniProt G5EF15); assay: inhibitors of POS-1/mex-3 RNA binding, dose response, biochemical, fluorescence polarization (AID 1964);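 further: purified POS-1 fused to maltose binding protein made in E. coli; potency of compounds blocking POS-1 binding to fluorescent RNA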
# T1 sequence (G5EF15 whole entry): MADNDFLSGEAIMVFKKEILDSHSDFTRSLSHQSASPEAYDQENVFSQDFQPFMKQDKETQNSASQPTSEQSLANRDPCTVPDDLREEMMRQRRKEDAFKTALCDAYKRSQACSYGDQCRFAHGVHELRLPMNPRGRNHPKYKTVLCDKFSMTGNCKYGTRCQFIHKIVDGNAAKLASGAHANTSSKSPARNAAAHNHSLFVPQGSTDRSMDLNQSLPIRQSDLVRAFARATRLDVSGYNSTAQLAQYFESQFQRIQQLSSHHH
# [10] = target: T2, Zinc finger protein mex-5 (Caenorhabditis elegans, UniProt Q9XUB2); assay: MEX-5/TCR-2 RNA interaction inhibitors, dose response, biochemical, C. elegans, fluorescence polarization (AID 1960)
# T2 sequence (Q9XUB2 whole entry): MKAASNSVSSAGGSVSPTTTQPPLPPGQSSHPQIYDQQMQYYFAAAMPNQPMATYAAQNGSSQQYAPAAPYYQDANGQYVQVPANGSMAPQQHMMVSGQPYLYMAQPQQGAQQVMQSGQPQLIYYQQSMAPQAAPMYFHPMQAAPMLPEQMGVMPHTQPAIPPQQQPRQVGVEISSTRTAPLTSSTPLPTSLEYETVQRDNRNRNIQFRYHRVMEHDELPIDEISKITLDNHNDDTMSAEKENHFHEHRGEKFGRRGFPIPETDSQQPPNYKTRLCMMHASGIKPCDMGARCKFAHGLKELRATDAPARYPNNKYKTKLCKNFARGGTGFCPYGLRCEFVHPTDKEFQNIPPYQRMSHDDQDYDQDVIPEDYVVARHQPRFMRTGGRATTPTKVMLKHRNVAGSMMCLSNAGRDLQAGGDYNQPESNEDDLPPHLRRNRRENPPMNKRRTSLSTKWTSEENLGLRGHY
# Genome polyprotein = Genome polyprotein (dengue virus type 2, UniProt P29990); assay: Dengue-2 NS5 methyltransferase inhibitors, primary screen, biochemical, confirmation dose response (AID 588689); assay type: functional
# [11] = target: Metabotropic glutamate receptor 5 (Rattus norvegicus, UniProt P31424); assay: Identification of a glycine sulfonamide based non-MPEP site positive allosteric potentiator (PAM) of mGlu5 (calcium_assay).; assay type: functional
# [12] = P. falciparum 3D7-ScDHODH growth inhibitors, dose response, SYBR Green, dry powder samples (AID 1159570); assay type: functional, cell-based;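 further: parasite growth measured after 72 hours of compound exposure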
# [13] = HepG2 cell cytotoxicity, dose response, cytotoxicity control, plate reader, dry powder samples (AID 1159569); assay type: functional, cell-based;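 further: inhibitor potency with signal falling toward the positive control level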
# [14] = P. falciparum Dd2 growth inhibitors, dose response, SYBR Green, cherry-picked samples (AID 1159567); assay type: functional, cell-based
# [15] = P. falciparum Dd2 growth inhibitors, dose response, SYBR Green, dry powder samples (AID 1159566); assay type: functional, cell-based;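 further: potency for growth inhibition with lower SYBR green DNA signal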
# [16] = HepG2 cell cytotoxicity, dose response, cytotoxicity control, cherry-picked samples (AID 1159577); assay type: functional, cell-based
# [17] = Plasmodium falciparum Dd2 Sybr green parasite growth Measured in Cell-Based and Microorganism Combination System Using Plate Reader - 2153-01_Inhibitor_Dose_DryPowder_Activity_Set3.; assay type: functional
# [18] = P. falciparum ATP4 D1247Y mutant growth inhibitors, dose response, NITD609-resistant line, SYBR Green, dry powder (AID 1159571); assay type: functional, cell-based;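 further: parasites synchronized at ring stage by sorbitol before testing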
# Protein Tat = Protein Tat (Human immunodeficiency virus type 1 group M subtype B (isolate HXB2)(HIV-1), UniProt P04608); assay type: functional;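 further: tat binding to TAR RNA read out by fluorescence polarization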
# Vero [19] = assay: host cell cytotoxicity of antiviral hits, dose response, cytotoxicity control for West Nile virus antiviral project, secondary assay (AID 1650); assay type: functional; conditions: Chlorocebus sabaeus
# Vero [20] = assay: West Nile virus antiviral activity, cell-based, CPE readout (AID 1621); assay type: functional; conditions: Chlorocebus sabaeus
# [21] = target: T3, Ubiquitin-conjugating enzyme E2 N (Homo sapiens, UniProt P61088); assay type: functional;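 further: Dose-response confirmation in a TR-FRET assay detecting UBC13-driven polyubiquitin chain formation, inhibition measured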
# T3 sequence (P61088 whole entry): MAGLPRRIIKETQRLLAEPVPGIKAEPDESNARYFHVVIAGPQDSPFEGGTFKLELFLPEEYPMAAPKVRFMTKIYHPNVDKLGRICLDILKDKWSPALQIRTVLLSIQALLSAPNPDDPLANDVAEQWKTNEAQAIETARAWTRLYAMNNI
# [22] = target: T4, Microphthalmia-associated transcription factor (Homo sapiens, UniProt O75030); assay: TRPM1 promoter luciferase signal decrease, dose response, MITF inhibitor project, cell-based, SK-MEL-5, cherry-picked, set 3 (AID 493073); assay type: functional
# T4 sequence (O75030 whole entry): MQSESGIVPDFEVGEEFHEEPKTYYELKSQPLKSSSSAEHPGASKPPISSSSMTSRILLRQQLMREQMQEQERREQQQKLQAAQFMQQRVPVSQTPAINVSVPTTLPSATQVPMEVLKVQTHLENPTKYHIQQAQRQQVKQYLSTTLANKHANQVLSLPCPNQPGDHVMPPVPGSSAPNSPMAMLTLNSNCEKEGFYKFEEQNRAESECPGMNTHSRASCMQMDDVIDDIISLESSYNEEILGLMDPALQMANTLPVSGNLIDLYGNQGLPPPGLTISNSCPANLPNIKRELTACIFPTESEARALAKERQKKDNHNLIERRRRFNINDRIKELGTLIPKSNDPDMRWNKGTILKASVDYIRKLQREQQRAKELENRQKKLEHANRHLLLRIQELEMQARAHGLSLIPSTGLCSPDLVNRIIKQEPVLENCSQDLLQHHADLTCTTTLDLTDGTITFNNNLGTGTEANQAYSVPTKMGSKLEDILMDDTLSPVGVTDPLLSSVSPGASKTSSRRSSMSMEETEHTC
# [23] = P. falciparum late gametocyte killing, dose response, luminescence (AID 1117278); assay type: functional, cell-based;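 further: gametocytes exposed to compound for 24 hours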
# [24] = Jurkat T cell cytotoxicity, dose response, cytotoxicity control for P. falciparum gametocyte viability project, luminescence (AID 1117277); assay type: functional, cell-based;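 further: potency reflects loss of cellular ATP meaning fewer viable cells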
# [25] = Luminescence Cell-Based Dose Response to Identify Activators of 5'UTR Stem-Loop Driven Prion Protein mRNA Translation in H4-C Neuroglioblastoma Cells. [Related pubchem assays: 1829 (Project Summary), 1814 (Primary HTS)]; assay type: functional
# [26] = Luminescence Cell-Based Dose Response to Identify Activators of Luciferase Translation or Activity in H4-C Neuroglioblastoma Cells. [Related pubchem assays: 1829 (Project Summary), 1814 (Primary HTS)]; assay type: functional
# [27] = Luminescence Cell-Based Dose Confirmation to Identify Activators of 5'UTR Stem-Loop Driven Alpha-Synuclein mRNA Translation in H4 Neuroglioblastoma Cells. [Related pubchem assays: 1829 (Project Summary), 1814 (Primary HTS)]; assay type: functional
# [28] = P. falciparum Dd2 growth inhibitors, dose response, SYBR Green, dry powder samples, set 9 (AID 1159568); assay type: functional, cell-based
# Chain of Genome polyprotein (P29990 2492-3391 limits assumed): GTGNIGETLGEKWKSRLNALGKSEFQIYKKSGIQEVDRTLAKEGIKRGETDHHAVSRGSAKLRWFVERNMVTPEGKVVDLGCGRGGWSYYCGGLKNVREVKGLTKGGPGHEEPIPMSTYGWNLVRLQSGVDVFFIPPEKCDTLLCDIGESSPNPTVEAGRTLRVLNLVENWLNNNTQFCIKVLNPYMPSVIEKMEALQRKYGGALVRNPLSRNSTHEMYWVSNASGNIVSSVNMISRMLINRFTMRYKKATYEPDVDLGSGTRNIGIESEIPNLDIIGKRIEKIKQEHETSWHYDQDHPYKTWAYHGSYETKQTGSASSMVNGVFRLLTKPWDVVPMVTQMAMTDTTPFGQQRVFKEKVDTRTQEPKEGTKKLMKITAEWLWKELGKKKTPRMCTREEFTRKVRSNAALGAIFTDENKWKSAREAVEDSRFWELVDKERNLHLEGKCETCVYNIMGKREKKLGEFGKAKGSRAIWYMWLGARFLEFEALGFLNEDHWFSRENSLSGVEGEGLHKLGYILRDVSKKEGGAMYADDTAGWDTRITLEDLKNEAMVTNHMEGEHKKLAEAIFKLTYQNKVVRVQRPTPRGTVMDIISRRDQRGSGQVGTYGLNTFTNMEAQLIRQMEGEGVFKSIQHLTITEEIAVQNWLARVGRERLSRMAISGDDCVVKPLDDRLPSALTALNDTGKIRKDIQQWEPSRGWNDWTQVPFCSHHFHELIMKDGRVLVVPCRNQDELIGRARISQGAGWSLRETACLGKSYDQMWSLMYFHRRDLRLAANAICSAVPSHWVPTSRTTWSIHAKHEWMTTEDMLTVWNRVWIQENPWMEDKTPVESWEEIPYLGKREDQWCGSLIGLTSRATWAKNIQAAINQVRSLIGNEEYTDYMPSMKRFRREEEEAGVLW
# Chain of Neurotensin receptor type 1 (P30989 whole entry): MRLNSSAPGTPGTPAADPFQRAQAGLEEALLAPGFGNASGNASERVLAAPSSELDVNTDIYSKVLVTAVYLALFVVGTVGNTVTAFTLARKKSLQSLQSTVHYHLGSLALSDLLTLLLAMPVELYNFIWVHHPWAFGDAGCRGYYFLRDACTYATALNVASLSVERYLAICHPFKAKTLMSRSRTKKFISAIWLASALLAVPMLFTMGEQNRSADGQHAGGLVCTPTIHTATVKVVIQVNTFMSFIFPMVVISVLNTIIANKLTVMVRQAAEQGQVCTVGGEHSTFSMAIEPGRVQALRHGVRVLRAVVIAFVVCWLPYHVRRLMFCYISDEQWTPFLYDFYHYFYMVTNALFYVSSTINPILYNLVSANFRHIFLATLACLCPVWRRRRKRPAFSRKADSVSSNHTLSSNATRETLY
# Chain of Large T antigen (P03070 whole entry): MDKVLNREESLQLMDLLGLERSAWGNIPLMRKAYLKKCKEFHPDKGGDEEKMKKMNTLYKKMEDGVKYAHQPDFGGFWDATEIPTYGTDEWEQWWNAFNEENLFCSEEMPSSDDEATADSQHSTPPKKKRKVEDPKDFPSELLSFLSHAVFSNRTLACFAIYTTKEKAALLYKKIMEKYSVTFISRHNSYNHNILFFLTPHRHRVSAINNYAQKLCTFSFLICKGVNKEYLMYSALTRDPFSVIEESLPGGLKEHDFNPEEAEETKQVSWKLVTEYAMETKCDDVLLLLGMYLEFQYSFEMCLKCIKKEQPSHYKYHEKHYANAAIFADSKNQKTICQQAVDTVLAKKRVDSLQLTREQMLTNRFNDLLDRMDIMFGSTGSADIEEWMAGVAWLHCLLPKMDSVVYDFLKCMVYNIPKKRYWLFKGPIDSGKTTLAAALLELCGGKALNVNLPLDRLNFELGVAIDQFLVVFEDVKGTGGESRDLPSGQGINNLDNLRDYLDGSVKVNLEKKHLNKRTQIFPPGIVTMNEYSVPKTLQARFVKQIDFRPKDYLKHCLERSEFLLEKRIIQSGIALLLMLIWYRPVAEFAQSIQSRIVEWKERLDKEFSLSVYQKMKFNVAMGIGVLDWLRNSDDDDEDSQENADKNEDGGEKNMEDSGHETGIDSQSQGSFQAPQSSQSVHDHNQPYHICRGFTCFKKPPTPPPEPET
# Chain of Protein Tat (P04608 whole entry): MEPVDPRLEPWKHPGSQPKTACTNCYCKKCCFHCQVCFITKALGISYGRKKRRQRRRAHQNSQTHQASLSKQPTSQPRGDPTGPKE
# Chain of Metabotropic glutamate receptor 5 (P31424 whole entry): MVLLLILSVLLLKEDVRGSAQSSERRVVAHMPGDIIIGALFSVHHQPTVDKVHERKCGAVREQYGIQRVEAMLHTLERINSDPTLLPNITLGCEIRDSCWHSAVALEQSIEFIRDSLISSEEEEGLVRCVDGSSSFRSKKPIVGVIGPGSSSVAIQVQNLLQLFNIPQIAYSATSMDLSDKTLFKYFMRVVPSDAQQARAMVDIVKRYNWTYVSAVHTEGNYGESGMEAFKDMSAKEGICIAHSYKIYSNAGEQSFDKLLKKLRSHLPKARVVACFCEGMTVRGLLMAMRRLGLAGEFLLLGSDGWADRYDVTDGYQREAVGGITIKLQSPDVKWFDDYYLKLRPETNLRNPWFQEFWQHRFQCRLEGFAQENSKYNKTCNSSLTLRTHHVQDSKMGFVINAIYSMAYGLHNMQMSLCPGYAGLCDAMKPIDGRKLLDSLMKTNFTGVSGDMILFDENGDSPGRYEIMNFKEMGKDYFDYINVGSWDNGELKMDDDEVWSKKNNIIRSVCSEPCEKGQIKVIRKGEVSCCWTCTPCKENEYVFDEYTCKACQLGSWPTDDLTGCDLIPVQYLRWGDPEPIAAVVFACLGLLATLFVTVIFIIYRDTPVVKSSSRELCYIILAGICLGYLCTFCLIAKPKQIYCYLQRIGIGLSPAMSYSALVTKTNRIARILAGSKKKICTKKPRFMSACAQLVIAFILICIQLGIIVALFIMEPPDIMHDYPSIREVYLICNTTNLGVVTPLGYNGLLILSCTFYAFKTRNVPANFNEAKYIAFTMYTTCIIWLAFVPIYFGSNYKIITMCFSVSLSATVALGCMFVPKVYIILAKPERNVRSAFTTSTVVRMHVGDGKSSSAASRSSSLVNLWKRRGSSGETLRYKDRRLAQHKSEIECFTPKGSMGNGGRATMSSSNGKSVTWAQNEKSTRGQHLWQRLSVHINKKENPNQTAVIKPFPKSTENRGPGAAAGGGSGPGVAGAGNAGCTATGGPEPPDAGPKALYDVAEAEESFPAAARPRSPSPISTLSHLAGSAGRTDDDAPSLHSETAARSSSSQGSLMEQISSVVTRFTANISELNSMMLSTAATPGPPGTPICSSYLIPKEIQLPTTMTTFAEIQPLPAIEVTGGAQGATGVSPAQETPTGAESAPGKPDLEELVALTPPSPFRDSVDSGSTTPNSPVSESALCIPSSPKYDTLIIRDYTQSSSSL
structure (smiles),measurement,setting,value
O=C1NC(=O)N(c2ccccc2)C(=O)/C1=C\C=C\c1ccccc1,EC50,[1],> 120 µM (not active)
same,EC50,[2],8.73 µM (active)
same,EC50,BJ [3],2.79 µM (inconclusive)
same,EC50,H4,> 120 µM (not active)
same,EC50,BJ [4],> 150 µM (inconclusive)
same,IC50,Large T antigen,95.6 µM (active)
same,EC50,BJ [5],4.12 µM (inconclusive)
same,EC50,[6],4.66 µM (inconclusive)
same,EC50,[7],15.1 µM (active)
same,CC50,[8],13 µM (active)
COc1cc(C(c2c(C(=O)O)[nH]c3ccccc23)c2c(C(=O)O)[nH]c3ccccc23)ccc1OCc1ccccc1,EC50,[9],47.7 µM (active)
same,EC50,[10],24.5 µM (active)
same,IC50,Genome polyprotein,16 µM (active)
same,AC50,cells,7.4 µM (active)
CS(=O)(=O)N(CC(=O)NC1CCCCC1)c1cc(C(F)(F)F)ccc1Cl,EC50,[11],10 µM (inconclusive)
COc1ccc(-c2ccc([C@H]3[C@@H](C#N)N(C(=O)NC4CCCC4)[C@@H]3CO)cc2)cc1,AC50,[12],5.29 µM (active)
same,AC50,[13],81.4 µM (active)
same,AC50,[14],< 0.3 µM (active)
same,AC50,[15],0.23 µM (active)
same,AC50,[16],> 39 µM (inactive)
same,AC50,[17],0.208 µM (active)
same,AC50,[18],0.248 µM (active)
Cc1occc1-c1nnc(SCC(=O)N2CCN(c3ccccc3)CC2)n1C,IC50,Protein Tat,> 100 µM (active)
CCCCN(CC)CCCNC(=O)c1cc2c(=O)n(CC)c3ccccc3c2s1,EC50,[1],73.6 µM (active)
same,EC50,[2],13.6 µM (active)
same,EC50,H4,11.7 µM (active)
same,CC50,Vero [19],24.3 µM (active)
same,IC50,Vero [20],22.7 µM (active)
same,IC50,[21],> 20 µM (inactive)
same,AC50,[22],21.6 µM (active)
Cc1ccc(C)c(N2CCN(C(=O)Cc3ccc(-n4c(=O)[nH]c5ccsc5c4=O)cc3)CC2)c1,IC50,[23],> 109 µM (inactive)
same,IC50,[24],> 83.2 µM (inactive)
O=C(Nc1ccc(CN2CCOCC2)cc1)c1ccc(Cl)cc1,EC50,[25],0.685 µM (active)
same,EC50,[1],< 0.1 µM (active)
same,EC50,[2],4.65 µM (active)
same,EC50,H4,16.1 µM (active)
same,EC50,[26],0.951 µM (active)
same,EC50,[27],> 12 µM (not active)
CCCNC(=O)N1[C@H](C#N)[C@H](c2ccc(C#Cc3cccc(F)c3)cc2)[C@H]1CO,AC50,[12],8.92 µM (active)
same,AC50,[28],0.00951 µM (active)
same,AC50,[14],< 0.3 µM (active)
same,AC50,[15],0.00355 µM (active)
same,AC50,[17],0.0243 µM (active)
same,AC50,[18],0.00678 µM (active)
CCN1CCN(CCCNC(=O)C2CCCN(c3nc4c(C)cc(C)cc4s3)C2)CC1 (stereo not given),IC50,Vero [20],24.8 µM (active)
